The results in this text go back to patent US20230414476A1, “TETRAPEPTIDE AND COMPOSITIONS COMPRISING TETRAPEPTIDES” (THE BOOTS COMPANY, priority 2020, published 2023).

One assay relates to Collagen IV. As to the kind of experiment: ELISA of collagen IV in culture supernatant of human dermal fibroblasts. Particulars: normal human dermal fibroblasts, 72 hours, weighted to viable cells. It counts as cell-based. How it is done:
(§1) An ELISA is an immunological assay commonly used to measure presence and abundance of a specific proteins (antibodies, antigens, proteins and glycoproteins) in biological samples. In this case ELISAs are being used to quantify the expression of dermal extracellular proteins collagen-1, decorin, fibronectin and collagen IV. The quantity of collagen I is evaluated via the quantity of PIP (“carboxU-terminal pro-peptide of procollagen type I”) which is a peptide fragment resulting from the enzymatic degradation of procollagen present outside the fibroblast in the culture supernatant medium.
(§2) Normal human dermal fibroblasts cells (HDFs) were cultured in contact with the tetrapeptides of the present invention, or composition without the peptide (negative control), for 72 hours. Thereafter the cultured supernatants were removed, and the quantity of dermal extracellular proteins determined using an ELISA assay for the protein of interest. For the ELISA quantification, cell viability was calculated using Hoechst staining allowing the quantity of dermal proteins to be weighted to the number of viable cells.
(§3) The effect of XXGD tetrapeptides on ECM protein expression by fibroblasts as measured by ELISA (columns 1 to 2) versus a tetrapeptide not conforming to the XXGD structure (column 3) are presented in the table below (table 1). Results are expressed as % increase or decrease versus the negative control.

For another assay, the system named is Fibronectin. As to the kind of experiment: ELISA of fibronectin in culture supernatant of human dermal fibroblasts. It counts as cell-based. Particulars: normal human dermal fibroblasts, 72 hours, weighted to viable cells. Here is the method: as §1, §2, §3
The next assay relates to Decorin. Nature of the assay: ELISA of decorin in culture supernatant of human dermal fibroblasts. It is filed as cell-based. Particulars: normal human dermal fibroblasts, 72 hours, weighted to viable cells. Here is the method:
as §1, §2, §3

The next assay relates to Collagen I (PIP). Nature of the assay: ELISA of collagen I (via PIP) in culture supernatant of human dermal fibroblasts. It is filed as cell-based. Particulars: normal human dermal fibroblasts, 72 hours, weighted to viable cells. How it is done: as §1, §2
The quantity of collagen I is evaluated using the quantity of PIP (“carboxU-terminal pro-peptide of procollagen type I”) which is a peptide fragment resulting from the enzymatic degradation of procollagen present outside the fibroblast in the culture supernatant medium.
as §3

The test system of another assay is Fibrillin-1. As to the kind of experiment: Immunofluorescence of Fibrillin-1 expression by HDF cells. It counts as cell-based, human. As to conditions: primary HDF cells, 5 days. Here is the method: Immunofluorescence relies on the use of antibodies to label a specific protein with a fluorescent dye such as fluorescein isothiocyanate (FITC). In the following experiments, indirect immunofluorescence is used where a primary antibody first recognises and attaches to the specific protein, in this case fibrillin-1, and then a secondary antibody conjugated with FITC directed against the primary antibody is used for detection.
Fibrillin-1 expression was determined using immunofluorescence. Primary human dermal fibroblast (HDF) cells were purchased from Promo Cell and came from a donor. Cells were grown in wells of 96 well black walled clear bottomed plates (Peirce, Thermo Fisher). Cells were cultured in HDF media (PromoCell) supplemented with Basic Fibroblast Growth Factor (recombinant human), 1 ng/ml and Insulin 5 μg/ml. […]
The antibody binding to Fibrillin-1 fibres was visualised using a Nikon Eclipse 100 microscope fluorescence setting using an excitation lens for fluorescein isothiocyanate (FITC). […] ImageJ software was used to quantify the Fibrillin-1 fibre abundance and coverage in each image using a threshold of 235 measuring the fibre density.
Results are expressed as a percentage increase in fibrillin abundance compared to untreated control. […]

Consider Pal-AKGD-OH, for which, in the assay on Collagen IV (peptide 15 ppm), the “Collagen IV expression, % increase or decrease versus the negative control” value is “+40%”. In addition, the “Fibronectin expression, % increase or decrease versus the negative control” value in the assay with Fibronectin (peptide 15 ppm) is recorded as “+112%”. For the same substance, in the assay with Decorin (peptide 15 ppm), the “Decorin expression, % increase or decrease versus the negative control” value is given as “+39%”. For the same substance, in the assay with Collagen I (PIP) (peptide 15 ppm), the “Collagen I (PIP) expression, % increase or decrease versus the negative control” value is recorded as “+26%”. In the assay on Fibrillin-1 (peptide 4 ppm (concentration with highest yield)), the “Fibrillin-1, percentage increase in fibrillin abundance compared to untreated control” value is listed as “+116%”.
Regarding Pal-EKGD-OH, the “Collagen IV expression, % increase or decrease versus the negative control” value with Collagen IV (peptide 12.5 ppm) is given as “+73%”. The “Fibronectin expression, % increase or decrease versus the negative control” value with Fibronectin (peptide 12.5 ppm) was “+114%”. Also, the “Decorin expression, % increase or decrease versus the negative control” value in the assay with Decorin (peptide 12.5 ppm) is on record as “+43%”. Also, in the assay with Collagen I (PIP) (peptide 12.5 ppm), the “Collagen I (PIP) expression, % increase or decrease versus the negative control” value is listed as “+101%”.
On to Pal-GYIL-OH [reference compound], for which the “Collagen IV expression, % increase or decrease versus the negative control” value in the assay on Collagen IV (peptide 15 ppm) was “+6%”. For the same substance, the “Fibronectin expression, % increase or decrease versus the negative control” value in the assay on Fibronectin (peptide 15 ppm) is recorded as −38%. In addition, the “Decorin expression, % increase or decrease versus the negative control” value in the assay with Decorin (peptide 15 ppm) is −13%. In the assay on Collagen I (PIP) (peptide 15 ppm), the “Collagen I (PIP) expression, % increase or decrease versus the negative control” value is listed as “+18%”. Further, in the assay with Fibrillin-1 (peptide 10 ppm (concentration with highest yield)), the “Fibrillin-1, percentage increase in fibrillin abundance compared to untreated control” value is reported as “+3%”.
